Data published in patent US11066446B2, “Cyclic peptide, affinity chromatography support, labeled antibody, antibody drug conjugate, and pharmaceutical preparation” (FUJIFILM Corporation, priority 2016, dated 2021).
Starred links: 1 amine or outer side, 2 acyl side, 3 side chain; linkers in the order of their positions; H or OH if unused. Positions of bridges follow the written chain, without caps; N, C: chain ends. Non-standard residues stand in square brackets, D forms with d. Primed or numbered codes have the meaning given here. No end group written: not given here. Bpg″ = L-bishomopropargylglycine residue, C#CCCC[C@H](N[*:1])C(=O)[*:2]; Lys(N3) = [N-]=[N+]=NCCCC[C@H](N)C(=O)O; Orn(N3) = [N-]=[N+]=NCCC[C@H](N)C(=O)O; Aha = [N-]=[N+]=NCC[C@H](N)C(=O)O; Bpg = L-bishomopropargylglycine; Hpra = C#CCC[C@H](N)C(=O)O; Pra = C#CC[C@H](N)C(=O)O

What was measured:
[1] = Chemical resistance: rate of change in antibody binding amount of immobilized support before and after alkali treatment; assay type: physicochemical; conditions: for Chemical resistance (rate of change in the binding amount): peptide-immobilized HiTrap support, human IgG binding amount at 10% leak, before and after 0.05 M aqueous NaOH for 6 hours at 25° C.; for chemical resistance (in words): summary wording of the chemical resistance evaluation
Protocol: 1 mL of HiTrap NHS-activated HP Columns (coupling columns for ligand immobilization, manufactured by GE Healthcare) (HITRAP is a registered trademark) was reacted with 1 mL of 10 mg/mL cyclic peptide solution, which was prepared by dissolving the cyclic peptide 1 in an immobilization buffer (10% DMSO in 200 mM NaHCO3, 500 mM NaCl, pH 8.3), for 1 hour at 25° C. The reaction product was blocked by an aqueous ethanolamine solution and washed, thereby obtaining a cyclic peptide 1-immobilized support. Hereinafter, the obtained immobilized support will be referred to as “immobilized support A”.
The immobilized support A prepared in (4) described above was connected to a chromatography system AKTA avant 25 (manufactured by GE Healthcare) (AKTAAVANT is a registered trademark), and the antibody binding amount was measured. The columns were equilibrated using an equilibration solution (20 mM phosphoric acid buffer, 150 mM NaCl, pH 7.4), and then 20 mL of a 5 mg/mL human IgG antibody standard buffer solution (20 mM phosphoric acid buffer, 150 mM NaCl, pH 7.4) was injected thereinto at a flow rate of 0.21 mL/min. Thereafter, the columns were washed with 5 mL of a postloading wash solution (20 mM phosphoric acid buffer, 150 mM NaCl, pH 7.4) caused to flow at the same flow rate and then washed with 5 mL of a pre-elution wash solution (20 mM phosphoric acid buffer, 1 M NaCl, pH 7.4) at the same flow rate. Then, 5 mL of an elution solution (100 mM citric acid buffer, pH 3.2) was caused to flow at the same flow rate. Subsequently, 5 mL of a cleaning in place (CIP) solution (0.1 M sodium hydroxide) was caused to flow at the same flow rate, and then 5 mL of a reequilibration solution (20 mM phosphoric acid buffer, 150 mM NaCl, pH 7.4) was caused to flow at the same flow rate. At this time, by using an immunoglobulin G (IgG) elution peak obtained by monitoring absorbance at 280 nm, the amount of antibodies binding to the support until 10% of the antibody stock solution leaked out of the support was measured as the antibody binding amount. Then, the immobilized support A was filled with a 0.05 M aqueous NaOH solution for 6 hours at 25° C. and left to stand, the antibody binding amount of the support was then measured in the same manner, and a rate of change in the binding amount was calculated from the antibody binding amount before and after the alkali treatment.

[2] = system: human immunoglobulin G (IgG) antibodies; assay: Relative binding activity to human IgG antibodies by surface plasmon resonance on immobilized sensor chip; conditions: for Relative binding activity: SPR (Biacore 3000, CM5 chip), 3,000 nM human IgG for 10 minutes at 25° C., relative to the cyclic peptide of Comparative Example 1 regarded as 1
Protocol: A commercially available CM5 (carboxymethyl dextran introduction-type, manufactured by GE Healthcare) sensor chip was set in Biacore 3000 (Biacore is a registered trademark) as a surface plasmon resonance device manufactured by GE Healthcare, a 4-(2-hydroxyethyl)-1-piperazineethanesulfonic acid (HEPES) buffer solution (20 mM HEPES-HCl, 150 mM NaCl, pH 7.4) for surface plasmon resonance (SPR) was stabilized at a flow rate of 10 μL/min, and 70 μL of an aqueous mixed solution of 0.2 M 1-(3-Dimethylaminopropyl)-3-ethylcarbodiimide (EDC) and […] of N-Hydroxysuccinimide (NHS) were injected thereinto. Thereafter, 100 μL of a sample solution of the cyclic peptide 1, which was diluted with a HEPES buffer solution at 0.2 g/L and treated with a polytetrafluoroethylene (PTFE) filter (manufactured by Advantec MFS, Inc.) having a diameter of 0.20 μm, was supplied to the sensor chip. Then, a blocking treatment was then performed on the sample solution by using an aqueous ethanolamine solution, and the sensor chip was washed with an aqueous sodium hydroxide solution, thereby performing immobilization. Likewise, 70 μL of an aqueous mixed solution of 0.2 M EDC and 0.04 M NHS was added to the same sensor chip without immobilizing the sample in another flow channel of the sensor chip, and then the blocking treatment and the washing treatment were performed. Hereinafter, the obtained immobilized sensor chip will be referred to as “immobilized sensor chip A”.
At 25° C., 3,000 nM of human immunoglobulin G (IgG) antibodies were added for 10 minutes to the immobilized sensor chip A prepared in (2) described above. Then, the antibody binding amount in the flow channel in which the cyclic peptide was immobilized immediately after the addition and in the flow channel in which the cyclic peptide was not immobilized was measured. From the difference in the antibody binding amount between the flow channel in which the cyclic peptide was immobilized and the flow channel in which the cyclic peptide was not immobilized and the amount of the immobilized cyclic peptide, the activity of the cyclic peptide was calculated. Furthermore, by regarding the activity of a cyclic peptide 5 in Comparative Example 1 as 1, the relative binding activity with respect to the human IgG antibodies was calculated.

Row | Substance | Chemical resistance (rate of change in the binding amount) [1] | Relative binding activity [2] | Relative binding activity ([2]; listed as Example 14) | chemical resistance (in words) [1] | chemical resistance (in words) ([1]; listed as Comparative Example 2) | antibody binding properties (in words) ([2]; summary wording of the relative binding activity evaluation, listed as Comparative Example 2)
1 | Asp-[Abu(N3)]-Ala-Tyr-His-Arg-Gly-Glu-Leu-Val-Trp-[Pra]-Thr-Lys-Lys (D[Aha]AYHRGELVW[Pra]TKK; triazole 2-12) [Cyclic peptide 6, [Abu(N3)] and [Pra] cross-linked through a triazole bond] | B (The rate of change in the binding amount was higher than 80% and equal to or lower than 90%) | B (The relative binding activity was higher than 400% and equal to or lower than 800% of the binding activity of the cyclic peptide 5) | – | – | – | –
2 | Asp-[Abu(N3)]-Ala-Tyr-His-Leu-Gly-Glu-Leu-Val-Trp-[Bpg]-Thr-Lys-Lys (D[Aha]AYHLGELVW[Bpg]TKK; triazole 2-12) [Cyclic peptide 13, [Abu(N3)] and [Bpg] cross-linked through a triazole bond] | A (The rate of change in the binding amount was higher than 90%) | B (The relative binding activity was higher than 400% and equal to or lower than 800% of the binding activity of the cyclic peptide 5) | – | – | – | –
3 | Asp-[Abu(N3)]-Ala-Tyr-His-Leu-Gly-Glu-Leu-Val-Trp-[Hpg]-Thr-Lys-Lys (D[Aha]AYHLGELVW[Hpra]TKK; triazole 2-12) [Cyclic peptide 11, [Abu(N3)] and [Hpg] cross-linked through a triazole bond] | A (The rate of change in the binding amount was higher than 90%) | A (The relative binding activity was higher than 800% of the binding activity of the cyclic peptide 5) | – | – | – | –
4 | Asp-[Abu(N3)]-Ala-Tyr-His-Leu-Gly-Glu-Leu-Val-Trp-[Pra]-Thr-Lys-Lys (D[Aha]AYHLGELVW[Pra]TKK; triazole 2-12) [Cyclic peptide 7, [Abu(N3)] and [Pra] cross-linked through a triazole bond] | A (The rate of change in the binding amount was higher than 90%) | B (The relative binding activity was higher than 400% and equal to or lower than 800% of the binding activity of the cyclic peptide 5) | – | – | – | –
5 | Asp-[Bpg]-Ala-Tyr-His-Leu-Gly-Glu-Leu-Val-Trp-[Lys(N3)]-Thr-Lys-Lys (D[Bpg]AYHLGELVW[Lys(N3)]TKK; triazole 2-12) [Cyclic peptide 3, [Bpg] and [Lys(N3)] cross-linked through a triazole bond] | A (The rate of change in the binding amount was higher than 90%) | A (The relative binding activity was higher than 800% of the binding activity of the cyclic peptide 5) | – | – | – | –
6 | Asp-[Bpg]-Ala-Tyr-His-Leu-Gly-Glu-Leu-Val-Trp-[Nva(N3)]-Thr-Lys-Lys (D[Bpg″]AYHLGELVW[Orn(N3)]TKK; triazole 2-12; also: Xaa2 derived from gamma-azido-L-homoalanine) [Cyclic peptide 14, [Bpg] and [Nva(N3)] cross-linked through a triazole bond] | A (The rate of change in the binding amount was higher than 90%) | B (The relative binding activity was higher than 400% and equal to or lower than 800% of the binding activity of the cyclic peptide 5) | C or a higher grade | – | – | –
7 | Asp-[Cys]-Ala-Tyr-His-Arg-Gly-Glu-Leu-Val-Trp-[Cys]-Thr-Lys-Lys (DCAYHRGELVWCTKK; disulfide 2-12) [Cyclic peptide 19, two [Cys]'s cross-linked through a disulfide bond; comparative, reference compound] | E (The rate of change in the binding amount was equal to or lower than 50%) | A (The relative binding activity was higher than 800% of the binding activity of the cyclic peptide 5) | – | poor | – | –
8 | Asp-[Glu]-Ala-Tyr-His-Leu-Gly-Glu-Leu-Val-Trp-[Lys]-Thr-Lys-Lys [Cyclic peptide 18, reference compound] | B (The rate of change in the binding amount was higher than 80% and equal to or lower than 90%) | E (The relative binding activity was equal to or lower than 100% of the binding activity of the cyclic peptide 5) | – | – | poor and sufficient | excellent and poor
9 | Asp-[Hpg]-Ala-Tyr-His-Leu-Gly-Glu-Leu-Val-Trp-[Abu(N3)]-Thr-Lys-Lys (D[Hpra]AYHLGELVW[Aha]TKK; triazole 2-12) [Cyclic peptide 12, [Hpg] and [Abu(N3)] cross-linked through a triazole bond] | A (The rate of change in the binding amount was higher than 90%) | A (The relative binding activity was higher than 800% of the binding activity of the cyclic peptide 5) | – | – | – | –
10 | Asp-[Hpg]-Ala-Tyr-His-Leu-Gly-Glu-Leu-Val-Trp-[Nva(N3)]-Thr-Lys-Lys (D[Hpra]AYHLGELVW[Orn(N3)]TKK; triazole 2-12) [Cyclic peptide 15, [Hpg] and [Nva(N3)] cross-linked through a triazole bond] | A (The rate of change in the binding amount was higher than 90%) | B (The relative binding activity was higher than 400% and equal to or lower than 800% of the binding activity of the cyclic peptide 5) | – | – | – | –
11 | Asp-[Lys(N3)]-Ala-Tyr-His-Leu-Gly-Glu-Leu-Val-Trp-[Hpg]-Thr-Lys-Lys (D[Lys(N3)]AYHLGELVW[Hpra]TKK; triazole 2-12) [Cyclic peptide 8, [Lys(N3)] and [Hpg] cross-linked through a triazole bond] | A (The rate of change in the binding amount was higher than 90%) | B (The relative binding activity was higher than 400% and equal to or lower than 800% of the binding activity of the cyclic peptide 5) | – | – | – | –
12 | Asp-[Lys(N3)]-Ala-Tyr-His-Leu-Gly-Glu-Leu-Val-Trp-[Pra]-Thr-Lys-Lys (D[Lys(N3)]AYHLGELVW[Pra]TKK; triazole 2-12) [Cyclic peptide 10, [Lys(N3)] and [Pra] cross-linked through a triazole bond] | A (The rate of change in the binding amount was higher than 90%) | C (The relative binding activity was higher than 200% and equal to or lower than 400% of the binding activity of the cyclic peptide 5) | – | – | – | –
